Data: patent US20220291236A1, “DETECTION OF DYSTROGLYCAN” (ML Bio Solutions Inc., priority 2021, published 2022)

System: alpha-dystroglycan (αDG)
Assay: Multiplexed Western Blot of total αDG and glycosylated αDG in muscle lysates of P448L mutant FKRP mice untreated or treated with 5% Ribitol
Format: in vivo, mouse
Settings: 5% Ribitol treated P488L mice compared to untreated P488L mice, heart muscle and TA lysates, region ~50-250 kDa
Protocol: Tissue samples were processed using a TissueLyzer IITM (Qiagen®). Approximately 250 milligrams (mg) of tissue was placed in a 2 mL microtube with a steel bead and 1 mL of Radioimmunoprecipitation assay buffer (RIPA) buffer supplemented with protease and phosphatase inhibitors. The microtubes were subjected to three cycles of disruption (2 minutes at 25 Hertz (Hz)) in the TissueLyzer IITM. Lysates were clarified by centrifugation and the supernatant was transferred to fresh tubes and lysate concentration was determined using a BCA assay (Pierce®). Polyacrylamide gel electrophoresis was carried out on 4-20% […] gels. […] The membrane was visualized on an Odyssey CLxTM imager (LiCorTM) and intensities of the 700 and 800 nm channels were recorded. […] Signal intensities were normalized to total protein and the ratio of 700 nm normalized signal/800 nm normalized signal was determined. Linear fits were assessed where applicable using the linear regression function of PrismTM. Statistical significance was determined using an unpaired t-test using PrismTM. 1) StainFree gel image is quantitated using ImageLabTM software to analyze the image from the ChemiDocTM Imaging System. […] Signal intensities were normalized to total protein and the ratio of 700 nm normalized signal/800 nm normalized signal was determined. Linear fits were assessed were applicable using a linear regression function. […]

Q: OC[C@@H](O)[C@@H](O)[C@@H](O)CO [Ribitol, (2R,3s,4S)-Pentane-1,2,3,4,5-pentol] was tested. Which “αDG expression (total αDG signal)” value (normalized to C57 untreated control (FIG. 6B)) did it give?
A: increased

Q: And the “ratio of glycosylated αDG to total αDG” value (normalized to C57 untreated control (FIG. 6C))?
A: increased
